Experimental data from ChEMBL document CHEMBL1201862, “PubChem BioAssay data set” (2004).
Active and inactive are the calls of the source.

Key:
Interleukin-8 = target: T1, Interleukin-8 (Homo sapiens, UniProt P10145); assay: SAR analysis of Tumor necrosis factor alpha (TNF-alpha) induced IL-8 secretion in MCF-7/NOD1 cells - Set 2. [Related pubchem assays (depositor defined):AID1575, AID2250, AID2260]; assay type: functional, cell-based
T1 sequence (P10145 whole entry): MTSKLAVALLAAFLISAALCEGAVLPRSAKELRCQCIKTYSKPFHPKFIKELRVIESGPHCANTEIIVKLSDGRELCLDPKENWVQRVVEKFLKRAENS

[1] = target: Nucleotide-binding oligomerization domain-containing protein 2 (Homo sapiens, UniProt Q9HC29); assay: NOD2 inhibitors, SAR follow-up, set 2 (AID 2475); assay type: functional
Protein RecA = target: T2, Protein RecA (Mycobacterium tuberculosis, UniProt P9WHJ3); assay: Fluorescence Cell-Free Homogeneous Dose Retest to Identify Inhibitors of RecA-Intein Splicing Activity. [Related pubchem assays (depositor defined):AID2097, AID2223, AID489010, AID492950]; assay type: functional
T2 sequence (P9WHJ3 whole entry): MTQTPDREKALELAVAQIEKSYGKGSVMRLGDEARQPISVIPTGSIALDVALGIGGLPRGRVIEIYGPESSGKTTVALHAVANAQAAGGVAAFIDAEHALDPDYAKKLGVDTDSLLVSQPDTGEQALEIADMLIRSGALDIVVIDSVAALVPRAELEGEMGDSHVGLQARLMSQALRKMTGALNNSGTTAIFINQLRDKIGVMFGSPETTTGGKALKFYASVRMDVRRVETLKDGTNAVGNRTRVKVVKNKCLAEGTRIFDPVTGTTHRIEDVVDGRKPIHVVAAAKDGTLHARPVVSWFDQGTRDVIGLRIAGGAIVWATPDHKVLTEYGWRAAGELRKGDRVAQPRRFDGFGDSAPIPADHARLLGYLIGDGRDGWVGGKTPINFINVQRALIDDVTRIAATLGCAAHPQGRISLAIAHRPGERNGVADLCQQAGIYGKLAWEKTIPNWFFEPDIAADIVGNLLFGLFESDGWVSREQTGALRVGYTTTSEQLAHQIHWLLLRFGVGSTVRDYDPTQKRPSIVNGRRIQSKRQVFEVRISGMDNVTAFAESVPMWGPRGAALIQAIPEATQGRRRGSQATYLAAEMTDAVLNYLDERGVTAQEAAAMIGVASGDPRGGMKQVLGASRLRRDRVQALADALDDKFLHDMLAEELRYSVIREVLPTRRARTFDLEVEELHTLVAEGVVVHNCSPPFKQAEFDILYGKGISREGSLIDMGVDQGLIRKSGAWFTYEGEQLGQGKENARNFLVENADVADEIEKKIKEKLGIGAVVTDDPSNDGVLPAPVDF

Beta Lactamase = Beta Lactamase (Pseudomonas aeruginosa, UniProt Q932Y6); assay: beta-lactamase reporter inhibitor potency, dose response, artefact control for TLR9-MyD88 binding inhibitor project, BLA reporter cells, FRET fluorescence (AID 588341); assay type: cell-based;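 note: cell based assay in CHO-K1 cells stably expressing beta-lactamase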
INS1 = assay: beta cell apoptosis inhibitors, cytokine rescue, dose response, luminescence, retest (AID 449756); assay type: functional, cell-based; conditions: Rattus norvegicus;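 note: cell death triggered by IL-1 beta plus TNF-alpha plus IFN-gamma mixture; protective hits raise ATP signal compared with cytokine alone wells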
Paired box protein Pax-8 = Paired box protein Pax-8 (Homo sapiens, UniProt Q06710); assay: inhibitors of PAX8-driven TPO luciferase reporter, dose response, RMG-I cells, cherry-pick (AID 687027); assay type: functional, cell-based;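 note: luciferase reporter driven by Pax8 target thyroperoxidase promoter measured by SteadyGlo luminescence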
[2] = target: Serine/threonine-protein phosphatase PP1-alpha catalytic subunit (Homo sapiens, UniProt P62136); assay: PP1 phosphatase inhibitors, dose response, biochemical, fluorescence (AID 2394)
[3] = target: Serine/threonine-protein phosphatase (Homo sapiens, UniProt Q9BPW0); assay: PP5 phosphatase inhibitors, dose response, biochemical, fluorescence (AID 2395)
[4] = target: T3, Sentrin-specific protease 6 (Homo sapiens, UniProt Q9GZR1); assay type: functional;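 note: Luminescence-based dose-response confirmatory assay of SENP6 inhibition, following up an ultra-high-throughput screen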
T3 sequence (Q9GZR1 whole entry): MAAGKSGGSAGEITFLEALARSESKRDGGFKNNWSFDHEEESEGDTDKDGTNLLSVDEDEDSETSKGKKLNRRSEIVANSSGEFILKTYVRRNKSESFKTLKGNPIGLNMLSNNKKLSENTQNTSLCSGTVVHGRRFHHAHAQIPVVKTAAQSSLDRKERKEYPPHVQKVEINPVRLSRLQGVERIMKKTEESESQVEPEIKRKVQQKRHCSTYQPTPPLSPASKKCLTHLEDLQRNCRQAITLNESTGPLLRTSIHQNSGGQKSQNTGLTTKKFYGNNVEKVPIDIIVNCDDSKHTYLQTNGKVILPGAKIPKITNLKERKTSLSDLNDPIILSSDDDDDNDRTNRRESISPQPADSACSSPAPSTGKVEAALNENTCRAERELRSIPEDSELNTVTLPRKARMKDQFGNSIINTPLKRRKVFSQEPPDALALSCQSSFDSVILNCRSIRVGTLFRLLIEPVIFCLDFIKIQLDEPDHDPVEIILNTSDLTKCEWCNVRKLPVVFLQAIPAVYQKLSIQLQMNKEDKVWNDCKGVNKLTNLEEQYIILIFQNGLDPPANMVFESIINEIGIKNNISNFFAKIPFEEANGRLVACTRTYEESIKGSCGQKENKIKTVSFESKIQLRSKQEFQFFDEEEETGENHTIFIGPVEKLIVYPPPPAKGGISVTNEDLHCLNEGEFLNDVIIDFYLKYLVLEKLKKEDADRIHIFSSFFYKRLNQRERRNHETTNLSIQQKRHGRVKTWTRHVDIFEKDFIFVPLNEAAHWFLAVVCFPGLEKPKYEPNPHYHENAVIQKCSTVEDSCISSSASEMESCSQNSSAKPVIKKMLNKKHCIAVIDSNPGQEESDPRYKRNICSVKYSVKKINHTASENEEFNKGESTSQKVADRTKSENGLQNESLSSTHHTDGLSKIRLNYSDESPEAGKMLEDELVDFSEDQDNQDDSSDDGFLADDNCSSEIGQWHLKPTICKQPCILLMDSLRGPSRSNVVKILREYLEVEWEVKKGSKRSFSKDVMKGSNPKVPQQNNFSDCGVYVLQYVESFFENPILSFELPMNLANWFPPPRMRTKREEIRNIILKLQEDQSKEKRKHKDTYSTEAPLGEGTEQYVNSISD

[5] = target: T4, Tyrosyl-DNA phosphodiesterase 2 (Homo sapiens, UniProt O95551); assay: human TDP2 enzyme inhibitors, dose response, biochemical, epi absorbance, IC50 (AID 743297)
T4 sequence (O95551 whole entry): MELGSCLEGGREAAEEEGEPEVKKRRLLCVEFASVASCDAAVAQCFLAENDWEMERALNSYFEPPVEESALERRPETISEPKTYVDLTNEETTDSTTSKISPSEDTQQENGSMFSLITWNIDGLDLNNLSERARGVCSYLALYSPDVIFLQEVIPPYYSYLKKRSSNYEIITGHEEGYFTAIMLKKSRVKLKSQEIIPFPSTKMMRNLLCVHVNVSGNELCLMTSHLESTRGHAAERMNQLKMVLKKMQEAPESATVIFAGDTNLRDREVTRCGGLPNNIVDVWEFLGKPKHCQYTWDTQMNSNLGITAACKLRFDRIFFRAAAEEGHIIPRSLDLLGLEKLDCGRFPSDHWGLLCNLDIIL

Chain of Serine/threonine-protein phosphatase PP1-alpha catalytic subunit (P62136 whole entry): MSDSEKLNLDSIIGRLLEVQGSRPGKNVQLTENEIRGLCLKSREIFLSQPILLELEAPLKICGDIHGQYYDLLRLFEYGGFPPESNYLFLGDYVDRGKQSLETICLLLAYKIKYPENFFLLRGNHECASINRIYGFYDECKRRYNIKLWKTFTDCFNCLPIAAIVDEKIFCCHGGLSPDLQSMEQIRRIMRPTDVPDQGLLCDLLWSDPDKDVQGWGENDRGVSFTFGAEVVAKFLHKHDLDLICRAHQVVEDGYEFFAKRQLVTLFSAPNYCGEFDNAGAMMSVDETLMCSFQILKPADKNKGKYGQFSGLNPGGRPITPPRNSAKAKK
Chain of Serine/threonine-protein phosphatase (Q9BPW0 whole entry): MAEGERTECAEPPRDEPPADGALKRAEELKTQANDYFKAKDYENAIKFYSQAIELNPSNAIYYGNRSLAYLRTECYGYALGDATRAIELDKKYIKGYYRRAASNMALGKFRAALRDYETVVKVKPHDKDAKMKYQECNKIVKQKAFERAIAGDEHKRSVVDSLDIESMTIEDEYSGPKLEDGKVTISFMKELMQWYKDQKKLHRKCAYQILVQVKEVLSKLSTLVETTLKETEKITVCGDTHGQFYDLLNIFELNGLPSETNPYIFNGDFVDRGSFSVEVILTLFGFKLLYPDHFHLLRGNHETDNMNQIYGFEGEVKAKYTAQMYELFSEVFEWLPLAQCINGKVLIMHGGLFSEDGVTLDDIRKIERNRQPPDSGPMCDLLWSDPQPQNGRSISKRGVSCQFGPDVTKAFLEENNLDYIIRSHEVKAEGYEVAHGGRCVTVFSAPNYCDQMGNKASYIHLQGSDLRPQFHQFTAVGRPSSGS
Chain of Beta Lactamase (Q932Y6 whole entry): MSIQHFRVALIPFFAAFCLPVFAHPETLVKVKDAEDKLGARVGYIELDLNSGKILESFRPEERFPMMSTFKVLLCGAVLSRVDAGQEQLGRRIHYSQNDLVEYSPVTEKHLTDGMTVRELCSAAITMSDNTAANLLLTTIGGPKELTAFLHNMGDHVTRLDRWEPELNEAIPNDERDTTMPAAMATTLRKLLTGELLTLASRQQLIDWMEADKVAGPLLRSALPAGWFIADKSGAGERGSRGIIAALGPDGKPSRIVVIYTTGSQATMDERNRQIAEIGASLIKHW
Chain of Paired box protein Pax-8 (Q06710 whole entry): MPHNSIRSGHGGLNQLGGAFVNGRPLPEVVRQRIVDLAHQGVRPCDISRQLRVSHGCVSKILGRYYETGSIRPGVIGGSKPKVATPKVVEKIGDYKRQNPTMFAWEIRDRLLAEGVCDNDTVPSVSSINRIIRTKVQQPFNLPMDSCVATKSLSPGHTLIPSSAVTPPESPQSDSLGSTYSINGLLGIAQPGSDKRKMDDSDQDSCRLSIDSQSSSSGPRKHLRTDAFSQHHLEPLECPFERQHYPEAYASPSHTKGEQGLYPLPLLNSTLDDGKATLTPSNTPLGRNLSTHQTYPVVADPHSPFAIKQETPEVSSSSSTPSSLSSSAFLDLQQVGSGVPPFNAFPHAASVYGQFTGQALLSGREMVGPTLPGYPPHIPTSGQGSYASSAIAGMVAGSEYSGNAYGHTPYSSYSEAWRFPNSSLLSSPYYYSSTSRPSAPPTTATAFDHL
Chain of Nucleotide-binding oligomerization domain-containing protein 2 (Q9HC29 whole entry, the tested form may be a part): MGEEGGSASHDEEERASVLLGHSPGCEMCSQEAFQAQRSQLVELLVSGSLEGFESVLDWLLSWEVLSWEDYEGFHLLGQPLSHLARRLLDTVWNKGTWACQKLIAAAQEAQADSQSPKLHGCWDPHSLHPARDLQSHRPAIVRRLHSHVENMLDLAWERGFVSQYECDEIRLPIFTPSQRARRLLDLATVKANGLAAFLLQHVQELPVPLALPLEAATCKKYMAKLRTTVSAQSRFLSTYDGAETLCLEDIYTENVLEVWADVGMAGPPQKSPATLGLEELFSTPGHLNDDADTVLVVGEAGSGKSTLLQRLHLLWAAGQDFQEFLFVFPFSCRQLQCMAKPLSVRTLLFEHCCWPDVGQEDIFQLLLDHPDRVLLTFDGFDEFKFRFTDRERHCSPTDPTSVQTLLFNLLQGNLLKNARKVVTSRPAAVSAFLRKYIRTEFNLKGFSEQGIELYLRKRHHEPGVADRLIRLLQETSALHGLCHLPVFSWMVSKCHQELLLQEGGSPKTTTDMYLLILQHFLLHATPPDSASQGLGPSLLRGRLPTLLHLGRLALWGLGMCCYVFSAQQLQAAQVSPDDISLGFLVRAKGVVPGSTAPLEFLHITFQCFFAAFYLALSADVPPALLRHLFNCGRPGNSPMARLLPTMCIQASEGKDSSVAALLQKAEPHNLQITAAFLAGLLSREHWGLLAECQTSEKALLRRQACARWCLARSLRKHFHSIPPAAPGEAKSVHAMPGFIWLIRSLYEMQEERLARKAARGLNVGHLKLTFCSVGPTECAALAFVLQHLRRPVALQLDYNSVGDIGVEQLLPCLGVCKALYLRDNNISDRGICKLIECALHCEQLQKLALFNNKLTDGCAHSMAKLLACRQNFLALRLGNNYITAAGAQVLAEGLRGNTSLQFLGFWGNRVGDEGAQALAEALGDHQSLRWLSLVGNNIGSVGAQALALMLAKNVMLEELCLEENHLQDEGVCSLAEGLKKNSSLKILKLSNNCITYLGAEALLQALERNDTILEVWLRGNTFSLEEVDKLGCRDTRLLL

Structure (SMILES)	IC50 (Interleukin-8)	IC50 [1]	EC50 (Protein RecA)	IC50 (Beta Lactamase)	AC50 (INS1)	AC50 (Paired box protein Pax-8)	IC50 [2]	IC50 [3]	IC50 [4]	IC50 [5]
Cn1c(=O)[nH]c(=O)c2c1nc([N+](=O)[O-])n2Cc1ccccc1	3.5 µM (active)	0.748 µM (active)	5.87 µM (active)	> 49.8 µM (inactive)	7.36 µM (active)	3.81 µM (active)	–	–	–	–
O=C(NC1(O)C(=O)c2ccccc2C1=O)c1ccc(C(F)(F)F)cc1	–	–	–	–	–	–	> 67 µM (not active)	> 0.828 µM (active)	2.66 µM (active)	3.85 µM (active)
CCN(c1ccccc1)c1cc2ccccc2c(=O)[nH]1	–	–	> 380 µM (inactive)	–	–	–	–	–	2.21 µM (active)	–
O=C(COC(=O)c1ccc([N+](=O)[O-])s1)Nc1ncc(C(F)(F)F)cc1Cl	–	–	–	–	–	–	–	–	5.68 µM (active)	–
O=C(NC1(O)C(=O)c2ccccc2C1=O)c1c(Cl)cccc1Cl	–	–	28.6 µM (active)	–	–	–	> 67 µM (not active)	> 2.48 µM (active)	3.53 µM (active)	4.2 µM (active)
